Residues, ends and D or L forms follow the SMILES beside them.
Experiments:
mouse lipoproteins = assay: ultracentrifugation of mouse serum with added rho B-labeled peptides; settings: for behaviour on ultracentrifugation of delipoproteinized mouse serum: rho B-labeled peptide added to delipoproteinized mouse serum; for behaviour on ultracentrifugation of whole mouse serum: rho B-labeled peptide added to whole mouse serum
H292 and A549 xenografts = settings: for tumor growth: free peptides i.p. at indicated doses
Protocol: Animal efficacy studies were performed using female 6-8 week old NU/J mice from the Jackson Laboratory (Bar Harbor, Me.). Animals were handled as specified in the USDA Animal Welfare Act (9 CFR, Parts 1, 2, and 3) and as described in the Guide for the Care and Use of Laboratory Animals from the National Research Council. Human lung carcinoma cell lines H292 and A549 were obtained from ATCC. Tumor cells in culture were harvested and resuspended in a 1:1 ratio of RPMI 1640 and Matrigel (BD Biosciences, San Jose, Calif.). NSCLC xenografts were established by injecting subcutaneously into the right flanks 5×10^6 viable cells per mouse. Tumor volumes were calculated with caliper measurements using the formula V=π/6 (length×width×width). […] All tested formulations were intraperitoneally (i.p.) injected at indicated doses and administration schedule. Clinical observations, body weights and tumor volume measurements were made 3 times weekly. Tumor volumes were analyzed using repeated measures ANOVA followed by Bonferroni test. Data points were represented as mean tumor volume±SEM. Antitumor effects were expressed as the percentage of T/C (treated versus control), dividing the tumor volumes from treatment groups with the control groups and multiplied by 100. According to the National Cancer Institute (NCI) standards (see e.g., Johnson, et al. Br J Cancer 2001, 84:1424-1431), a % T/C≤42 is indicative of antitumor activity. At the end of the experiment, the animals were sacrificed and the tumors were excised and weighed.

[1] = system: mice with collagen-induced arthritis (CIA); assay: collagen-induced arthritis (CIA) in mice; settings: for tolerability in arthritic mice (body weight changes) / arthritis (clinical arthritis score): CIA mice; for tolerability in arthritic mice (body weight changes): day 24 to day 38; for arthritis (clinical arthritis score): treatment days 24-38
From the text: As described herein, starting on day 24 after immunization, mice with CIA were intraperitoneally (i.p.) administered daily for 14 consecutive days with vehicle (black diamonds), dexamethasone (black squares), GF9 (white circles), GF9-LPC (black circles) and GA/E31-LPC (half black half white circles) at indicated doses. Daily clinical scores were given on a scale of 0-5 for each of the paws on days 24-38. On day 38, mice were killed and the histopathological examination of mouse joints was performed. Histopathological scores of inflammation (I), pannus (P), cartilage damage (CD), bone resorption (BR) and periosteal new bone formation (PBF) are shown. Summed histopathology scores were calculated as the sum of all five histopathological parameters. All results are expressed as the mean±SEM (n=10 mice per group).
Mouse body weight (BW) was measured every other day from day 24 to day 38. Mean BW changes were calculated as a percentage of the difference between beginning (day 24) and final (day 38) BWs of the CIA mice intraperitoneally (i.p.) treated daily for 14 consecutive days with vehicle, dexamethasone, GF9, GF9-LPC and GA/E31-LPC at indicated doses. All results are expressed as the mean±SEM (n=10 mice per group).
Plasma was collected on days 24, 30 and 38 from arthritic mice treated with vehicle (black diamonds), GF9 (white circles), GF9-LPC (black circles) and GA/E31-LPC (half black half white circles). Plasma samples were analyzed for concentrations of interleukin-1b (IL-1b), IL-6, and colony-stimulating factor 1 (CSF1). Results are expressed as the mean±SEM (n=5 mice per group).

[2] = Mouse tolerability studies; type: in vivo; settings: female, C57BL/6, mouse, in vivo, ip
Protocol: Naïve, female C57BL/6 mice at 8 to 10 weeks of age (18 to 21 g) from the Jackson Laboratory were used. […] Clinical observations and body weights were made twice daily.
Naïve, female C57BL/6 mice at 8 to 10 weeks of age (18 to 21 g) from the Jackson Laboratory were used. Animals were randomly grouped (5 mice per group) and i.p. injected with 400 mg/kg G-HV21, G-KV21 or G-TE21. Clinical observations and body weights were made twice daily.

[3] = system: DBA/1 mice with collagen-induced arthritis; assay: Collagen-induced arthritis (CIA) model; settings: for CIA severity; bone and cartilage damage: 5 mg/kg i.p. daily 14 days, free peptides
Protocol: Animal studies were performed by Bolder BioPATH (Boulder, Colo., USA). CIA was induced in male 6- to 7-week-old DBA/1 mice by immunization with bovine type II collagen. Briefly, mice were injected intradermally with 100 μl of Freund's complete adjuvant containing 250 μg of bovine type II collagen (2 mg/ml final concentration) at the base of the tail on day 0 and again on day 21. On day 24, mice were randomized by body weight into treatment groups. […] Mice were weighed on study days 24, 26, 28, 30, 32, 34, 36 and 38 (prior to necropsy). Daily clinical scores were given on a scale of 0-5 for each of the paws on days 24-38. On day 38, mice were killed for necropsy.
At the end of study, fore paws, hind paws and knees were harvested, fixed in 10% neutral buffered formalin for 1-2 days, and then decalcified in 5% formic acid for 4-5 days before standard processing for paraffin embedding. Sections (8 μm) were cut and stained with toluidine blue (T blue). Hind paws, fore paws and knees were embedded and sectioned in the frontal plane. Six joints from each animal were processed for histopathological evaluation. The joints were then assessed using 0-5 scale for inflammation, pannus formation, cartilage damage, bone resorption and periosteal new bone formation. A summed histopathology score (sum of five parameters, 0-25 scale) was also determined.
Animal studies were performed by Bolder BioPATH (Boulder, Colo., USA). CIA was induced in male 6- to 7-week-old DBA/1 mice by immunization with bovine type II collagen. Briefly, mice were injected intradermally with 100 μl of Freund's complete adjuvant containing 250 μg of bovine type II collagen (2 mg/ml final concentration) at the base of the tail on day 0 and again on day 21. On day 24, mice were randomized by body weight into treatment groups. […] Starting day 24, mice were injected i.p. intraperitoneally daily for 14 consecutive days with 5 mg/kg G-KV21, G-HV21, G-TE21, M-TK32 and M-VE32 or with PBS (vehicle). Mice were weighed on study days 24, 26, 28, 30, 32, 34, 36 and 38 (prior to necropsy). Daily clinical scores were given on a scale of 0-5 for each of the paws on days 24-38. On day 38, mice were killed for necropsy.

[4] = tolerability in healthy mice (body weight); type: in vivo
Protocol: As described herein, healthy C57BL/6 mice were intraperitoneally (i.p.) administered daily for 7 consecutive days with GF9 at indicated doses Mouse body weight (BW) was measured daily.

[5] = 400 mg/kg, free form, healthy mice
[6] = healthy C57BL/6 mice, average weights

SMILES | behaviour on ultracentrifugation of delipoproteinized mouse serum (mouse lipoproteins) | behaviour on ultracentrifugation of whole mouse serum (mouse lipoproteins) | tumor growth (H292 and A549 xenografts) | tolerability in arthritic mice (body weight changes) [1] | arthritis (clinical arthritis score) [1] | MTD [2, 5] | CIA severity; bone and cartilage damage [3] | toxicity in healthy mice [4, 6] | toxicity / tolerability in cancer mice (H292 and A549 xenografts; in vivo) | penetration of the synovial membrane ([1]; mouse, in vivo) | MTD [2] | toxicity / tolerability in arthritic mice ([3]; mouse, in vivo, ip) | MTD at 168 h ([4]; C57BL/6, mouse, in vivo, ip) | dose tolerated by healthy mice ([4]; healthy mice, GF9 i.p. daily for 7 consecutive days) | toxicity in healthy mice ([4]; mouse, in vivo)
CC(C)C[C@H](NC(=O)[C@H](Cc1ccccc1)NC(=O)CN)C(=O)N[C@@H](CO)C(=O)N[C@@H](CCCCN)C(=O)N[C@@H](CO)C(=O)N[C@@H](CC(C)C)C(=O)N[C@H](C(=O)N[C@@H](Cc1ccccc1)C(=O)NCC(=O)N[C@@H](CCC(=O)O)C(=O)N[C@@H](CCC(=O)O)C(=O)N[C@@H](CC[S+](C)[O-])C(=O)N[C@@H](CCCNC(=N)N)C(=O)N[C@@H](CC(=O)O)C(=O)N[C@@H](CCCNC(=N)N)C(=O)N[C@@H](C)C(=O)N[C@@H](CCCNC(=N)N)C(=O)N[C@@H](C)C(=O)N[C@@H](Cc1c[nH]cn1)C(=O)N[C@H](C(=O)O)C(C)C)C(C)C (stereo partly drawn) [G-HV21] (HELM PEPTIDE1{G.F.L.S.K.S.L.V.F.G.E.E.[CS(=O)CC[C@H](N[*:1])C(=O)[*:2]].R.D.R.A.R.A.H.V}$$$$V2.0) | sedimentate with serum proteins | floatation of these peptides with mouse lipoproteins | inhibit tumor growth in two human NSCLC xenograft mouse models | well-tolerated by arthritic mice | ameliorate the disease | ≥ 400 mg/kg | ameliorate CIA and protect against bone and cartilage damage | No toxicity was observed |  |  |  |  |  |  | 
CC(C)C[C@H](NC(=O)[C@H](Cc1ccccc1)NC(=O)CN)C(=O)N[C@@H](CO)C(=O)N[C@@H](CCCCN)C(=O)N[C@@H](CO)C(=O)N[C@@H](CC(C)C)C(=O)N[C@H](C(=O)N[C@@H](Cc1ccccc1)C(=O)N[C@@H](Cc1c[nH]c2ccccc12)C(=O)N[C@@H](CCC(N)=O)C(=O)N[C@@H](CCC(=O)O)C(=O)N[C@@H](CCC(=O)O)C(=O)N[C@@H](CC[S+](C)[O-])C(=O)N[C@@H](CCC(=O)O)C(=O)N[C@@H](CC(C)C)C(=O)N[C@@H](Cc1ccc(O)cc1)C(=O)N[C@@H](CCCNC(=N)N)C(=O)N[C@@H](CCC(N)=O)C(=O)N[C@@H](CCCCN)C(=O)N[C@H](C(=O)O)C(C)C)C(C)C (stereo partly drawn) [G-KV21] (HELM PEPTIDE1{G.F.L.S.K.S.L.V.F.W.Q.E.E.[CS(=O)CC[C@H](N[*:1])C(=O)[*:2]].E.L.Y.R.Q.K.V}$$$$V2.0) | sedimentate with serum proteins | floatation of these peptides with mouse lipoproteins | inhibit tumor growth in two human NSCLC xenograft mouse models | well-tolerated by arthritic mice | ameliorate the disease | ≥ 400 mg/kg | ameliorate CIA and protect against bone and cartilage damage | No toxicity was observed |  |  |  |  |  |  | 
CC(C)C[C@H](NC(=O)[C@H](Cc1ccccc1)NC(=O)CN)C(=O)N[C@@H](CO)C(=O)N[C@@H](CCCCN)C(=O)N[C@@H](CO)C(=O)N[C@@H](CC(C)C)C(=O)N[C@H](C(=O)N[C@@H](Cc1ccccc1)C(=O)O)C(C)C [GF9] (H-GFLSKSLVF-OH) |  | sedimentate with serum proteins |  |  |  |  |  |  | non-toxic and well-tolerable by cancer mice | penetrate the synovial membrane | ≥ 300 mg/kg | non-toxic and well-tolerable by arthritic mice | ≥ 300 mg/kg | up to 300 mg/kg | non-toxic
